From PMC12238723, “Phase I Clinical Trial of CVL218, a Novel PARP1/2 Inhibitor, in Patients with Advanced Solid Tumors” (MedComm, 2025)

Test system: patients with advanced solid tumors
Experiment: Treatment-related adverse events (CTCAE v5.0), phase I dose escalation
Assay type: in vivo
Description: This study was a single‐arm, dose‐escalation phase I trial conducted in Sun Yat‐sen University Cancer Center in China. This study assessed CVL218 in patients with histologically or cytologically confirmed advanced solid tumors who were in PD after standard therapeutic regimens or lacked standard treatment options. Inclusion criteria included: age 18–75 years; with at least one measurable and evaluable target lesion per Response Evaluation Criteria in Solid Tumors 1.1 (RECIST 1.1); ECOG performance status of 0 or 1; adequate hematological, renal, cardiac, and hepatic functions and a life expectancy ≥12 weeks. Key exclusion criteria included prior usage of PARP inhibitors; allergic to the research drug or its components; with active, unstable systemic diseases or active, uncontrolled infection; a history of other malignancies within 5 years, and pregnant or lactating women.
CVL218 was administered orally, and this dose‐escalation trial included nine dose levels: 100 mg QD (50 mg BID), 200 mg QD (100 mg BID), 400 mg QD (200 mg BID), 700 mg QD (350 mg BID), 1000 mg QD (500 mg BID), 1200 mg QD (600 mg BID), 1400 mg QD (700 mg BID), 1700 mg QD (850 mg BID), and 2000 mg QD (1000 mg BID). Patients enrolled in the study received a single oral dose on the first day, followed by continuous multiple dosing (twice a day taking 12 h apart) after 72 h, with the treatment cycle lasting 4 weeks. The period during which patients received a single dose is designated as cycle 0 (C0), lasting 72 h. After this period, patients begin multiple dosing, referred to as cycle 1 (C1). An initial accelerated titration design was employed for the three lowest dose groups, and the “3+3” design was applied starting with the 300 mg BID cohort.
The primary objectives were to assess safety and tolerability as well as to determine the MTD, DLT, and dose recommended for further study. DLT was defined as any of the following events occurring during cycle 0 (including 72 h wash‐out period after a single dose) and cycle 1 per Common Terminology Criteria for Adverse Events (CTCAE) version 5.0: grade 4 anemia; grade 4 neutropenia; grade 3 neutropenia with fever ≥38.5°C; grade 4 thrombocytopenia; grade 3 thrombocytopenia associated with bleeding; grade ≥2 neurotoxicity; any other grade ≥3 nonhematological toxicities (excluding alopecia). The secondary objectives were to assess the PK and preliminary efficacy of CVL218.
Subjects who received at least one dose of CVL218 with postadministration safety records were included in safety analysis set. Subjects who received at least one dose of CVL218 with at least one evaluable PK parameter were included in PK analysis set. Per‐protocol set were used for efficacy analysis. Descriptive statistics of safety were presented per CTCAE v5.0. The PK parameters T max and T 1/2 were shown as the median (min, max) and mean ± SD, respectively. A two‐sided p < 0.05 was considered to indicate statistical significance. Statistical analysis was performed by using GraphPad prism 8.0.2 and R‐4.3.3.

## CNCc1ccc(-c2cc3cc(F)cc(C(N)=O)c3o2)cc1.Cl [CVL218]
200 mg BID, ≥G3
  Headache: 0 n (%)
  Hypoalbuminemia: 0 n (%)
  Infusion site pain: 0 n (%)
  Laboratory test disorders: 0 n (%)
  Limb discomfort: 0 n (%)
  Lipase increased: 0 n (%)
  Metabolic disorders: 0 n (%)
  Musculoskeletal discomfort: 0 n (%)
  Musculoskeletal disorders: 0 n (%)
  Nausea: 0 n (%)
  Nervous system disorders: 0 n (%)
  Neutrophil count decreased: 0 n (%)
  Neutrophil count increased: 0 n (%)
  Palpitations: 0 n (%)
  Protein urine present: 0 n (%)
  Proteinuria: 0 n (%)
  Rash: 0 n (%)
  Renal & urinary disorders: 0 n (%)
  Renal failure: 0 n (%)
  Reproductive disorders: 0 n (%)
  Skin disorders: 0 n (%)
  Urinary occult blood positive: 0 n (%)
  Vomiting: 0 n (%)
  WBC count decreased: 0 n (%)
  WBC count increased: 0 n (%)
350 mg BID, ALL
  Infusion site pain: 0 n (%)
  WBC count increased: 0 n (%)
350 mg BID, ≥G3
  ALT increased: 0 n (%)
  AST increased: 0 n (%)
  Abdominal distension: 0 n (%)
  Abdominal pain: 0 n (%)
  Abdominal pain upper: 0 n (%)
  Amylase increased: 0 n (%)
  Anemia: 0 n (%)
  Any AE related to study drug: 0 n (%)
  Asthenia: 0 n (%)
  Blood creatinine increased: 0 n (%)
  Blood system disorders: 0 n (%)
  Blood triglycerides increased: 0 n (%)
  Blood urea increased: 0 n (%)
  Cardiac disorders: 0 n (%)
  Chest discomfort: 0 n (%)
  Constipation: 0 n (%)
  Decreased appetite: 0 n (%)
  Diarrhea: 0 n (%)
  Dizziness: 0 n (%)
  Erectile dysfunction: 0 n (%)
  Gastrointestinal disorders: 0 n (%)
  General disorders: 0 n (%)
  Gingival bleeding: 0 n (%)
  Granulocyte count increased: 0 n (%)
  Headache: 0 n (%)
  Hypoalbuminemia: 0 n (%)
  Infusion site pain: 0 n (%)
  Laboratory test disorders: 0 n (%)
  Limb discomfort: 0 n (%)
  Lipase increased: 0 n (%)
  Metabolic disorders: 0 n (%)
  Musculoskeletal discomfort: 0 n (%)
  Musculoskeletal disorders: 0 n (%)
  Nausea: 0 n (%)
  Nervous system disorders: 0 n (%)
  Neutrophil count decreased: 0 n (%)
  Neutrophil count increased: 0 n (%)
  Palpitations: 0 n (%)
  Protein urine present: 0 n (%)
  Proteinuria: 0 n (%)
  Rash: 0 n (%)
  Renal & urinary disorders: 0 n (%)
  Renal failure: 0 n (%)
  Reproductive disorders: 0 n (%)
  Skin disorders: 0 n (%)
  Urinary occult blood positive: 0 n (%)
  Vomiting: 0 n (%)
  WBC count decreased: 0 n (%)
  WBC count increased: 0 n (%)
500 mg BID, ALL
  Infusion site pain: 0 n (%)
  WBC count increased: 1 (25) n (%)
500 mg BID, ≥G3
  ALT increased: 0 n (%)
  AST increased: 0 n (%)
  Abdominal distension: 0 n (%)
  Abdominal pain: 0 n (%)
  Abdominal pain upper: 0 n (%)
  Amylase increased: 0 n (%)
  Anemia: 0 n (%)
  Any AE related to study drug: 1 (25.0) n (%)
  Asthenia: 0 n (%)
  Blood creatinine increased: 0 n (%)
  Blood system disorders: 0 n (%)
  Blood triglycerides increased: 0 n (%)
  Blood urea increased: 0 n (%)
  Cardiac disorders: 0 n (%)
  Chest discomfort: 0 n (%)
  Constipation: 0 n (%)
  Decreased appetite: 0 n (%)
  Diarrhea: 0 n (%)
  Dizziness: 0 n (%)
  Erectile dysfunction: 0 n (%)
  Gastrointestinal disorders: 0 n (%)
  General disorders: 0 n (%)
  Gingival bleeding: 0 n (%)
  Granulocyte count increased: 0 n (%)
  Headache: 0 n (%)
  Hypoalbuminemia: 0 n (%)
  Infusion site pain: 0 n (%)
  Limb discomfort: 0 n (%)
  Metabolic disorders: 0 n (%)
  Musculoskeletal discomfort: 0 n (%)
  Musculoskeletal disorders: 0 n (%)
  Nausea: 0 n (%)
  Nervous system disorders: 0 n (%)
  Neutrophil count decreased: 0 n (%)
  Neutrophil count increased: 0 n (%)
  Palpitations: 0 n (%)
  Protein urine present: 0 n (%)
  Proteinuria: 0 n (%)
  Rash: 0 n (%)
  Renal & urinary disorders: 0 n (%)
  Renal failure: 0 n (%)
  Reproductive disorders: 0 n (%)
  Skin disorders: 0 n (%)
  Urinary occult blood positive: 0 n (%)
  Vomiting: 0 n (%)
  WBC count decreased: 0 n (%)
  WBC count increased: 0 n (%)
600 mg BID, ALL
  Infusion site pain: 0 n (%)
  WBC count increased: 0 n (%)
600 mg BID, ≥G3
  ALT increased: 0 n (%)
  AST increased: 0 n (%)
